Experimental data published in PMC8876931, “Pharmacokinetic, Metabolomic, and Stability Assessment of Ganoderic Acid H Based Triterpenoid Enriched Fraction of Ganoderma lucidum P. Karst” (Metabolites, 2022).

What was measured:
[1] = In vivo pattern recognition of TEF: UPLC–MS metabolic profiling of blood after oral administration; design: species or system rats; conditions: for bioavailability (absorbed in systemic circulation) of TEF constituent: after oral administration of TEF to rats, in words; for Metabolites Pattern in TEF and Blood (Abundance): UPLC–MS abundance of mass
Experimental: For in vivo pattern recognition of TEF, it was orally administered to rats. After its oral administration, blood samples were collected at different time intervals. Prepared plasma samples of pharmacokinetic analysis (0.5, 1, 3, 6, 12, 24, 48, and 72 h) were used for this study. Samples were analyzed by ultra-performance liquid chromatography–mass spectrometry (UPLC–MS) analysis. The UPLC–MS was performed on Water’s ACQUITY UPLCTM system (Waters Corp., Milford, MA, USA) equipped with a binary solvent delivery system, an autosampler, column manager, and a tunable MS detector (Synapt; Waters, Manchester, UK). Chromatographic separation was performed on a Water’s ACQUITY UPLC^TM BEH C18 (100.0 × 2.1 mm × 1.7 μm) column. The mobile phase used for chromatographic separation was 0.05% (v/v) formic acid in water (A) and 0.05% (v/v) formic acid in acetonitrile (B). […] The flow rate of mobile phase was 0.5 mL/min, and column temperature was set at 25 °C throughout the run time. The mass spectrometry was performed on a quadrupole orthogonal acceleration time of flight tandem mass spectrometer (Waters Q-TOF, Manchester, UK). The nebulizer gas was set to 500 L/h, the cone gas was set to 50 L/h, and the source temperature was set to 100 °C. The capillary voltage was set to 3.0 kV, and the sample cone voltage was set to […]. Argon was employed as the collision gas at a pressure of 5.3 × 10^−5 Torr. The Q-TOF was operated in positive mode with […] and 0.02 s inter-scan delay. The accurate mass and composition for the precursor ions and the fragment ions were calculated by using MassLynx v 4.1 software incorporated with the instrument. Compounds were tentatively identified from database by comparing their reported m/z values with experimental values. Focus was given to the mass ranges from 130 to 600 m/z for lanosterol type triterpenoids and general terpene hydrocarbon. The databases used for identification of compounds were MassBank and HMDB.
Metabolomic comparison was performed with respect to analysis of TEF. For that, dried TEF was dissolved in LC–MS grade methanol and analyzed with same conditions used for plasma sample analysis. […] This metabolomic analysis was based on metabolites absorbed in blood after oral administration.

[2] = tested on: breast cancer cells; design: method as in PMID 18425349; conditions: by modulating AP-1 and NF-κB signaling; cited from earlier work
[3] = Pharmacokinetic analysis of TEF in terms of GA-H after oral administration to rats (HPLC of plasma and urine); type: in vivo, Albino Wistar rats; design: rate of elimination (Kel): unit not given here
Experimental: Alliance HPLC system (e2695 Separation module, Waters, Milford, MA, USA) with a gradient pump integrated with adjustable wavelength programmable photodiode array detector (PDA) was employed for analysis. Chromatographic separation was executed on Hupersil […] C18 (ODS) column (150 × 4.6 mm, Phenomenex, Torrance, CA, USA), using mobile phase composed of 0.5% v/v formic acid in water (A) and methanol (B). Solvents were eluted at a flow rate of 1.0 mL/min in gradient elution program (initially 100% A, 0–5 min 90% A, 5–10 min 70% A, 10–15 min 30% A, 15–20 min 2% A, and 20–22 min 100% A). Detection was carried out in a scanning mode with 3D channel at a wavelength of 254 nm. Total run time was 25 min. The identity of the compounds was established by comparing retention time of analytical standards. The proposed developed method was further validated as per the AOAC guidelines.
Albino Wistar rats (8 weeks old, 180 ± 20 g) were obtained from the Central Animal House Facility of Jamia Hamdard. Animal housing and handling were executed in accordance with the Good Laboratory Practice (GLP) mentioned in CPCSEA guidelines. All experimental protocols were reviewed and approved by the Institutional Animal Ethics Committee (Registration No 173/GO/RE/S/2000/CPCSEA; approval number 1472). All animals were housed in polypropylene cages (not more than three animals per cage) with proper water and feed and were allowed to acclimatize with specified conditions (25 ± 3 °C and 60 ± 5%RH) for a week before the experiment. […] After oral administration, blood samples were collected from retro-orbital plexus by using heparinized capillaries at 0 (pre-dose), 0.5, 1, 1.5, 2, 4, 6, 8, 10, 12, 16, 24, and 30 h. Blood samples were collected in EDTA tubes and centrifuged at 7000 rpm to get plasma. The separated plasma was stored at −60 °C until analysis. […] The collected urine from each animal was pooled for analysis.
Liquid–liquid extraction was used for extraction of GA-H from plasma. In 100 µL of plasma, 500 µL of ice-cold methanol was added, vortexed, and incubated at −60 °C for 8 h. After incubation, it was brought to room temperature and centrifuged at 10,000 rpm for 10 min. The supernatant was separated and dried by passing […]. The dried extract was re-suspended with 100 μL of LC–MS grade methanol, sonicated for 10 min, centrifuged at 14,000 rpm for 10 min, supernatant separated, and then transferred into sample vials having insert for analysis. Similar sample preparation protocol and storage conditions were used for urine through liquid–liquid extraction.
The maximum plasma concentration (Cmax) and time to attain maximum concentration (Tmax) were directly assessed by plasma concentration–time graph. Other pharmacokinetic parameters, such as AUC, AUC0–t, AUC0–∞, half-life (t1/2), elimination rate constant (Kel), and volume of distribution (Vd), were calculated from plasma concentration vs. time profile response curve by non-compartmental analysis, using software Pkf Excel plug-in program.

[4] = blood 3 h after oral TEF to rats
[5] = blood 6 h after oral TEF to rats
[6] = blood 12 h after oral TEF to rats
[7] = blood 24 h after oral TEF to rats
[8] = blood 48 h after oral TEF to rats
[9] = blood 72 h after oral TEF to rats
[10] = blood 1 h after oral TEF to rats
[11] = Albino Wistar, rat, plasma, po, 85 mg/kg
[12] = GA-H in rat plasma after oral TEF 85 mg/Kg
[13] = GA-H, rats, oral TEF 85 mg/Kg, non-compartmental analysis
[14] = blood 0.5 h after oral TEF to rats

| SMILES | bioavailability (absorbed in systemic circulation) of TEF constituent [1] | Metabolites Pattern in TEF and Blood (Abundance) [1, 7] | Metabolites Pattern in TEF and Blood (Abundance) [1, 8] | Metabolites Pattern in TEF and Blood (Abundance) [1, 9] | Metabolites Pattern in TEF and Blood (Abundance) [1, 4] | Metabolites Pattern in TEF and Blood (Abundance) [1, 5] | Metabolites Pattern in TEF and Blood (Abundance) [1, 6] | Metabolites Pattern in TEF and Blood (Abundance) [1, 10] | effect on growth and invasive behavior of breast cancer cells [2] | also measured |
| --- | --- | --- | --- | --- | --- | --- | --- | --- | --- | --- |
| C[C@H](CC(=O)C[C@@H](C)[C@H]1C[C@H](O)[C@@]2(C)C3=C(C(=O)C[C@]12C)[C@@]1(C)CCC(=O)C(C)(C)[C@@H]1C[C@@H]3O)C(=O)O [Ganoderic acid A] | bioavailable | 21,548 |  |  | 37,652 | 29,143 | 22,987 | 45,647 | suppress the growth and invasive behavior |  |
| CC(CC(=O)C[C@@H](C)[C@H]1CC(=O)[C@@]2(C)C3=C(C(=O)C[C@]12C)[C@@]1(C)CCC(=O)C(C)(C)[C@@H]1C[C@@H]3O)C(=O)O (some centres unmarked) [Ganoderic acid D] |  | 21,234 |  |  | 37,654 | 27,689 | 26,657 | 36,786 |  |  |
| CC(=O)O[C@@H]1C(=O)C2=C(C(=O)C[C@H]3C(C)(C)C(=O)CC[C@]23C)[C@]2(C)C(=O)C[C@H]([C@H](C)CC(=O)CC(C)C(=O)O)[C@@]12C (some centres unmarked) [GA-F, ganoderic acid F] |  |  |  |  |  |  |  |  | suppress the growth and invasive behavior |  |
| CC(=O)O[C@@H]1C(=O)C2=C(C(=O)C[C@H]3C(C)(C)[C@@H](O)CC[C@]23C)[C@]2(C)C(=O)C[C@H]([C@H](C)CC(=O)CC(C)C(=O)O)[C@@]12C (some centres unmarked) [GA-H, ganoderic acid H] |  |  |  |  | 54,675 | 32,456 | 24,978 | 45,675 | suppress the growth and invasive behavior | AUC(0-inf) [3, 11]: 9.84 ± 0.157 µg·h/mL; AUC(0-t) [3, 11]: 9.8 ± 0.17 µg·h/mL; half-life ([3]; Albino Wistar, rat, plasma, po, 85 mg/kg, read-out: half-life in blood (converted)): 13.2 h; Cmax ([3]; Albino Wistar, rat, plasma, po, 85 mg/kg, read-out: maximum plasma concentration (Cmax)): 2.51 µg/mL; MRT ([3]; Albino Wistar, rat, plasma, po, 85 mg/kg, read-out: mean residence time in blood): 5.42 h; relative exposure AUC0–∞/D [3, 12]: 1968.9 ± 32.5 ng·h/mL/mg; relative exposure Cmax/D [3, 12]: 501.9 ± 25.4 ng/mL/mg; time to peak plasma concentration (Tmax) [3, 12]: approximately one; time up to which a quantifiable amount was sustained in plasma ([3]; GA-H, rats, oral TEF): up to 12 h; rate of elimination (Kel) ([3]; GA-H, rats, oral TEF 85 mg/Kg): 0.05; clearance (CL) [3, 13]: 507.9 ± 25.6 mL/h; volume of distribution (Vd) [3, 13]: 9660.3 ± 111.5 mL; detection in urine ([3]; rat urine collected at 4, 12 and 24 h after oral TEF, pooled): no GA-H was detected; Metabolites Pattern in TEF and Blood (Abundance) [1, 14]: 35,876 |

The next lines start with results.

| bioavailability (absorbed in systemic circulation) of TEF constituent [1] | Metabolites Pattern in TEF and Blood (Abundance) [1, 7] | Metabolites Pattern in TEF and Blood (Abundance) [1, 8] | Metabolites Pattern in TEF and Blood (Abundance) [1, 9] | SMILES | Metabolites Pattern in TEF and Blood (Abundance) [1, 4] | Metabolites Pattern in TEF and Blood (Abundance) [1, 5] | Metabolites Pattern in TEF and Blood (Abundance) [1, 6] | Metabolites Pattern in TEF and Blood (Abundance) [1, 10] | effect on growth and invasive behavior of breast cancer cells [2] | also measured |
| --- | --- | --- | --- | --- | --- | --- | --- | --- | --- | --- |
| bioavailable | 12,112 | 8453 | 5641 | CCCCC/C=C\C/C=C\CCCCCCCC(=O)O [Linoleic acid] | 23,451 | 21,543 | 18,756 |  |  |  |
| absorbed in the systemic circulation |  |  |  | NC(=O)CC[C@H](N=C/C=C1/C=C(C(=O)O)N[C@H](C(=O)O)C1)C(=O)O [Glutamine-betaxanthin] |  |  |  |  |  |  |
| bioavailable | 21,324 | 24,569 | 22,345 | OC[C@H]1OC(c2c(O)cc3c(c2O)C[C@@H](O)[C@@H](c2ccc(O)c(O)c2)O3)[C@H](O)[C@@H](O)[C@@H]1O (some centres unmarked) [Epicatechin-6-glucoside] | 25,056 | 26,578 | 22,346 | 36,783 |  | Metabolites Pattern in TEF and Blood (Abundance) [1, 14]: 19,876 |
| bioavailable | 16,734 | 9835 | 5642 | CC(C)CCCCCCCCCCCC(=O)O [13-methylmyristic acid] | 23,412 | 25,473 | 21,675 |  |  |  |
